Test: Solubility of iturinic lipopeptide (mycosubtilin) alone or in compositions with surfactants; supernatant after centrifugation analysed by RP-HPLC
Assay type: physicochemical
Protocol: An iturinic lipopeptide (here mycosubtilin), having a purity (on dry matter) of between 45% and 80%, was solubilized alone in water at different concentrations and this control composition was compared to different compositions to which different surfactant compounds were added as described in the application. After 15 days of storage at 21° C., only compositions with a rheological behaviour of the fluid type and a homogeneous appearance (without flow preventing caking and/or phase shift and/or precipitation) are selected, mixed by stirring, then these compositions are centrifuged for 10 minutes at 10,000 g and the supernatant is analysed using the RP-HPLC reference method. This method makes it possible to check the solubility of the iturinic compounds that are then found in the supernatant after centrifugation.
The solubility of iturinic lipopeptide (here mycosubtilin) alone in an aqueous solution as a function of its concentration is shown in FIG. 1. No surfactant is added to composition 1 which contains only iturinic lipopeptides.
The measurement is made on the supernatant after a centrifugation step to eliminate insoluble substances.

## mycosubtilin
Alkylthoxyglycoside (AEG 0.4%, composition 8 of FIG. 2), 15 days at room temperature
  solubility of mycosubtilin: above 30 g/L
Combination of surfactin and fengycin (composition 10 of FIG. 2), compared with fengycin or surfactin alone
  iturinic compound solubility: even higher
Mycosubtilin alone in aqueous solution, between 5 and 25 g/L (FIG. 1)
  appearance / solubility beyond the maximum concentration: a precipitate that settles can be observed and only a small part remains soluble
Mycosubtilin alone in aqueous solution, room temperature, no surfactant (FIG. 1)
  maximum concentration at which mycosubtilin solubilizes: 2 g/L
non-ionic Simulsol and anionic Protéol, 10% each (composition 3 of FIG. 2), 15 days at room temperature
  maximum solubility of mycosubtilin: 15.3 mg/mL
non-ionic compound Emulsogen (0.2%) (composition 6 of FIG. 2), 15 days at room temperature
  maximum solubility of mycosubtilin: 11.6 mg/mL
Penthylene glycol (50%, composition 7 of FIG. 2), 15 days at room temperature
  solubility of mycosubtilin: above 30 g/L
Presence of fengycin (10%, composition 2 of FIG. 2), 15 days at room temperature, supernatant after centrifugation
  solubility of mycosubtilin: ~30 mg/mL
Presence of surfactin (4%, composition 9 of FIG. 2), 15 days at room temperature, supernatant after centrifugation
  solubility of mycosubtilin: ~30 mg/mL
Soy lecithin (4%) coupled with Xanthan gum (0.1%) (composition 4 of FIG. 2), 15 days at room temperature
  maximum solubility of mycosubtilin: 1.5 mg/mL
Surfactin (4%) and non-ionic surfactant Emulsogen (0.2%) (composition 13 of FIG. 2), 15 days at room temperature
  maximum solubility of the iturinic compound: 112 mg/mL
